Reference: patent US20240294572A1, “Antimicrobial Peptides” (priority 2021, published 2024)
Converted amounts (≈) assume the structure as drawn. No end group written: not given here.

Assays:
[1] = system: E. coli ATCC 25922; type: cell-based
Procedure, shortened: (§1)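 Broth microdilution after CLSI M07-A10, modified: 2-fold peptide dilutions plus log-phase bacteria diluted to 0.001 OD, incubated overnight at 37° C, absorbance read at 630 nm. Medium effects probed with varied pH, NaCl or human serum in TSB (control pH 7.4), with 10%, 50%, 100% TSB, and with MHB.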

[2] = system: S. aureus USA300 LAC; type: cell-based; settings: USA300
Procedure, shortened: as §1

[3] = system: E. coli ATCC 25922; settings: LL-37 value taken from Narayana, et al.; cited from earlier work
[4] = system: Klebsiella pneumonia ATCC 13883; settings: LL-37 value taken from Narayana, et al.; cited from earlier work
[5] = system: P. aeruginosa PAO1; settings: LL-37 value taken from Narayana, et al.; cited from earlier work
[6] = system: human red blood cells (hRBCs); settings: 50% hemolysis; LL-37 value taken from Narayana, et al.; cited from earlier work
[7] = target: T1, Apolipoprotein A-I (Q00623) (Mus musculus, UniProt Q00623); assay: Mass spectrometry of mouse plasma proteins bound to bead-immobilized peptide; type: binding; settings: peptide on beads, 5% mouse plasma, 18 hours
T1 construct: incubated with 5% mouse plasma; from tissue; host or cells: mouse plasma (5%)
T1 sequence (Q00623 19-264): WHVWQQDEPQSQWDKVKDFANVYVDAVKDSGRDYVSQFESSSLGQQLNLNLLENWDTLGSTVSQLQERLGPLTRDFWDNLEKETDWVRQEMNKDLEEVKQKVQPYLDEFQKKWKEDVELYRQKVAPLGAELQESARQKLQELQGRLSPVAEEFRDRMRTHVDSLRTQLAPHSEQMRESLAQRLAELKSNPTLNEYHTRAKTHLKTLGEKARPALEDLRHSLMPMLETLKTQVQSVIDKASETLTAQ
Protocol: (§2) Dynabeads M-370 amine (2×10^9 beads/mL, 50 μL; Thermo Fisher Scientific) were washed 3 times in sterile PBS (1 mL; GIBCO) and reacted with a bifunctional SM(PEG)4 cross-linker (5 mg/mL in DMSO) containing N-hydroxysuccinimide (NHS) ester and maleimide functional groups. A stable covalent bond between the amino group of beads and the NHS ester of the cross-linker was formed in PBS at pH 7.2 at room temperature for 24 hours with shaking at 80 rpm. The beads were then washed six times with PBS to remove nonreacted cross-linker. Next, peptide C10-KR8 (with a cysteine at the N-terminus) at 5 mg/mL was reacted with the free maleimide group in PBS for 24 hours at room temperature with shaking at 80 rpm. Another round of washing was conducted to remove the nonreacted peptides. Both the L-and D-forms of the peptide were coupled in the same manner. A portion of the beads without peptide coupling was saved as a control.
(§3) For serum binding experiments, the beads were resuspended in 500 μL of PBS; 200-μL aliquots of the coated and control dynabead were incubated with 5% mouse plasma for 18 hours at 37° C. After binding, the beads were washed six times with PBS to remove unbound proteins. Finally, the beads were suspended in 50 μL of PBS for mass spectrophotometric analysis to identify peptide-binding partners.
(§4) The samples were reduced by 10 mM dithiothreitol (DTT) and incubated for 30 minutes at 56° C. and back to room temperature. A final concentration of 50 mM iodoacetamide was added to alkylate free cysteines followed by further incubation for 20 min in the dark. Bound proteins were enzymatically digested by trypsin (4 μL of 0.5 μg/mL) overnight. A 60 […] portion was transferred to a new Eppendorf® tube and dried for 2 hours. The samples were then dissolved in 20 μL of 2% acetonitrile with 0.1% formic acid before being loaded to Q-tip columns (Pepclean, C18 spin column). Column was activated by pipetting in and out (4× times), 10 μL of 70% acetonitrile with 0.1% formic acid, and equilibrating with the same volume of 2% acetonitrile with 0.1% formic acid. Binding of the samples was done by mixing more than 10 × times, followed by washing in the same buffer (2% acetonitrile with 0.1% formic acid). The bound peptides were then eluted with 20 μL of 70% acetonitrile with 0.1% formic acid. Samples were subjected to LC-MS analysis after being suspended in the desired buffer.
(§5) Extracted peptides were resuspended in 2% acetonitrile (ACN) and 0.1% formic acid (FA) and loaded onto trap column Acclaim™ PepMap™ 100 75 μm×2 cm C18 LC Columns (Thermo Scientific) at a flow rate of 4 μL/minute. These were then separated with a Thermo RSLC UltiMate™ 3000 on a Thermo Easy-Spray PepMap™ M RSLC C18 75 μm×50 cm C-18 2 μm column (Thermo Scientific) with a step gradient of 4-25% solvent B (0.1% FA in 80% ACN) from 10 to 37 minutes and 25-45% solvent B for 37-46 minutes at 300 nL/min and 50° C. with a 70 minute total run time. Eluted peptides were analyzed by a Thermo Orbitrap Fusion™ Lumos™ Tribrid™ (Thermo Scientific) mass spectrometer in a data dependent acquisition mode. A survey full scan MS (from m/z 350-1800) was acquired in the orbitrap with a resolution of 120000. The AGC target for MS1 was set as 4×10^5 and the ion filling time set as 100 ms. The most intense ions with charge state 2-6 were isolated in 3 second cycle and fragmented using HCD fragmentation with 40% normalized collision energy and detected at a mass resolution of 30000 at 200 m/z. The AGC target for MS/MS was set as 5×10^4 and ion filling time set 60 ms dynamic exclusion was set for 30 seconds with a 10 ppm mass window. Protein identification was performed by searching MS/MS data against the Swiss-Prot mouse protein database. The search was set up for full tryptic peptides with a maximum of two missed cleavage sites. Acetylation of protein N-terminus and oxidized methionine were included as variable modifications, and carbamidomethylation of cysteine was set as fixed modification. […]

[8] = target: T2, Apolipoprotein A-II (P09813) (Mus musculus, UniProt P09813); assay: as above; type: binding; settings: peptide on beads, 5% mouse plasma, 18 hours
T2 construct: incubated with 5% mouse plasma; from tissue; host or cells: mouse plasma (5%)
Protocol: as §2, §3, §4, §5

[9] = target: T3, Apolipoprotein A-IV (P06728) (Mus musculus, UniProt P06728); assay: as above; type: binding; settings: peptide on beads, 5% mouse plasma, 18 hours
T3 construct: incubated with 5% mouse plasma; from tissue; host or cells: mouse plasma (5%)
T3 sequence (P06728 21-395): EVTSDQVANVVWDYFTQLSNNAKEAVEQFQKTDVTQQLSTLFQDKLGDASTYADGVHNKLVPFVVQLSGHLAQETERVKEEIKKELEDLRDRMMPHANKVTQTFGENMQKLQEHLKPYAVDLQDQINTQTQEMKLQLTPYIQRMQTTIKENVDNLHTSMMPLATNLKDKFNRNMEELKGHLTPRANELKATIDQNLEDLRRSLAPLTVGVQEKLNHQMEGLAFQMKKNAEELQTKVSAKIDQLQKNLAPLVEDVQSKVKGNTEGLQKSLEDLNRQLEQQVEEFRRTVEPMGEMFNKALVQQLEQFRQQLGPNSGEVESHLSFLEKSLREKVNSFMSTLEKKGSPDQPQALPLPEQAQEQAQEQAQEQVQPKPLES
Protocol: as §2, §3, §4, §5

[10] = target: T4, Apolipoprotein C-I (P34928) (Mus musculus, UniProt P34928); assay: as above; type: binding; settings: peptide on beads, 5% mouse plasma, 18 hours
T4 construct: incubated with 5% mouse plasma; from tissue; host or cells: mouse plasma (5%)
T4 sequence (P34928 27-88): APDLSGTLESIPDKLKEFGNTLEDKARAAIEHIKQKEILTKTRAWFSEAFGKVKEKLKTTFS
Protocol: as §2, §3, §4, §5

[11] = target: T5, Apolipoprotein C-III (P33622) (Mus musculus, UniProt P33622); assay: as above; type: binding; settings: peptide on beads, 5% mouse plasma, 18 hours
T5 construct: incubated with 5% mouse plasma; from tissue; host or cells: mouse plasma (5%)
T5 sequence (P33622 21-99): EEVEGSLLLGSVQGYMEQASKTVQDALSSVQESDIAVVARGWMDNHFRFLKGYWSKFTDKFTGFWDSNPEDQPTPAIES
Protocol: as §2, §3, §4, §5

[12] = target: T6, Apolipoprotein E (P08226) (Mus musculus, UniProt P08226); assay: as above; type: binding; settings: peptide on beads, 5% mouse plasma, 18 hours
T6 construct: incubated with 5% mouse plasma; from tissue; host or cells: mouse plasma (5%)
T6 sequence (P08226 19-311): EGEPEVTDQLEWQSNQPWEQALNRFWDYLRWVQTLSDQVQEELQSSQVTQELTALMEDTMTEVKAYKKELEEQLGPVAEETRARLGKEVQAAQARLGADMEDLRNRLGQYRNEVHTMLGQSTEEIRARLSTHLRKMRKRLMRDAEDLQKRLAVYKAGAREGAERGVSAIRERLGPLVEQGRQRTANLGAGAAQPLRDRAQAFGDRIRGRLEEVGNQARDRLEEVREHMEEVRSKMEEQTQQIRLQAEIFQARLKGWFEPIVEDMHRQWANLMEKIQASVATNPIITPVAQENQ
Protocol: as §2, §3, §4, §5

[13] = target: T7, Serum albumin (P07724) (Mus musculus, UniProt P07724); assay: as above; type: binding; settings: peptide on beads, 5% mouse plasma, 18 hours
T7 construct: incubated with 5% mouse plasma; from tissue; host or cells: mouse plasma (5%)
Protocol: as §2, §3, §4, §5

T7 sequence (P07724 25-608): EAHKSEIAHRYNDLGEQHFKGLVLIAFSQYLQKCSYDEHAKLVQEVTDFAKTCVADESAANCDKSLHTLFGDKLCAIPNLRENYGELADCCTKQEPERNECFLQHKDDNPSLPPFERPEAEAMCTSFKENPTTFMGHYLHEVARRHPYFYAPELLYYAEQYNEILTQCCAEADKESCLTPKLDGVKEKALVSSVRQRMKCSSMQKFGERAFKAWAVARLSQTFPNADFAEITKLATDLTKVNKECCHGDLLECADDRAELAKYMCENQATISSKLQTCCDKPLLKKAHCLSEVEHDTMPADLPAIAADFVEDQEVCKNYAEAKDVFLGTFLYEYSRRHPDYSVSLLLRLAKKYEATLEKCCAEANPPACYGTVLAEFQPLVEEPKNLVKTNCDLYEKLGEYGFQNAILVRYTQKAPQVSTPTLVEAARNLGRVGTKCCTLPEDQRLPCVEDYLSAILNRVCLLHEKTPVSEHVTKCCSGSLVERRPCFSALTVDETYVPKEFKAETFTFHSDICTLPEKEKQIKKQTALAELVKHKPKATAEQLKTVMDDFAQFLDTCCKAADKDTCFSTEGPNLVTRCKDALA
T2 sequence (P09813 19-102): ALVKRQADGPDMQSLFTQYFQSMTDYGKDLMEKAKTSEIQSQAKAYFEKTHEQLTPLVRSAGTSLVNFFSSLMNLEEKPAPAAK

## CC[C@H](C)[C@H](NC(=O)[C@H](CCCCN)NC(=O)[C@H](CCC(=O)O)NC(=O)[C@H](CCCCN)NC(=O)[C@H](CO)NC(=O)[C@H](CCCCN)NC(=O)[C@H](CCCNC(=N)N)NC(=O)[C@H](Cc1ccccc1)NC(=O)[C@H](Cc1ccccc1)NC(=O)[C@H](CC(=O)O)NC(=O)CNC(=O)[C@H](CC(C)C)NC(=O)[C@@H](N)CC(C)C)C(=O)NCC(=O)N[C@@H](CCCCN)C(=O)N[C@@H](CCC(=O)O)C(=O)N[C@@H](Cc1ccccc1)C(=O)N[C@@H](CCCCN)C(=O)N[C@@H](CCCNC(=N)N)C(=O)N[C@H](C(=O)N[C@H](C(=O)N[C@@H](CCC(N)=O)C(=O)N[C@@H](CCCNC(=N)N)C(=O)N[C@H](C(=O)N[C@@H](CCCCN)C(=O)N[C@@H](CC(=O)O)C(=O)N[C@@H](Cc1ccccc1)C(=O)N[C@@H](CC(C)C)C(=O)N[C@@H](CCCNC(=N)N)C(=O)N[C@@H](CC(N)=O)C(=O)N[C@@H](CC(C)C)C(=O)N[C@H](C(=O)N1CCC[C@H]1C(=O)N[C@@H](CCCNC(=N)N)C(=O)N[C@H](C(=O)N[C@@H](CCC(=O)O)C(=O)N[C@@H](CO)C(N)=O)[C@@H](C)O)C(C)C)[C@@H](C)CC)C(C)C)[C@@H](C)CC [LL-37, reference compound]
[1]
  Minimal inhibitory concentration against E. coli, 10% TSB: 1.6 µM (≈ 7.19 µg/mL)
  Minimal inhibitory concentration against E. coli, 50% TSB: 6.2 µM (≈ 27.9 µg/mL)
  Minimal inhibitory concentration against E. coli, 100% MHB: 6.2 µM (≈ 27.9 µg/mL)
  Minimal inhibitory concentration against E. coli, 100% TSB: 6.25 to 12.5 µM
[2]
  Minimal inhibitory concentration against S. aureus, 10% TSB: 50 µM (≈ 225 µg/mL)
  Minimal inhibitory concentration against S. aureus, 50% TSB: > 50 µM
  Minimal inhibitory concentration against S. aureus, 100% MHB: >50 µM
  Minimal inhibitory concentration against S. aureus, 100% TSB: > 50 µM
[3]
  MIC (μM) EC: 3.1 to 6.2 µM
[4]
  MIC (μM) KP: 6.2 µM (≈ 27.9 µg/mL)
[5]
  MIC (μM) PA: >50 µM
[6]
  HC50: 170 µM

## C10-KR8 + linker: C10-KR8 with a cysteine, covalently attached via SM(PEG)4 cross-linker to Dynabeads M-370 amine (CKRIWQRIK; not fully specified (residue 1, N-terminus, C-terminus); also: added N-terminal Cys coupled via SM(PEG)4 to Dynabeads M-370 amine)
[7]
  Intensity of bound Apolipoprotein A-I: 4.29E+09
[8]
  Intensity of bound Apolipoprotein A-II: 3.65E+05
[9]
  Intensity of bound Apolipoprotein A-IV: 3.21E+08
[10]
  Intensity of bound Apolipoprotein C-I: 4.35E+08
[11]
  Intensity of bound Apolipoprotein C-III: 2.02E+08
[12]
  Intensity of bound Apolipoprotein E: 1.68E+07
[13]
  Intensity of bound Serum albumin: 3.72E+10
